The target in one assay is T1, olfr478 (Mus musculus, UniProt Q8VG04).
T1 construct: from tissue; host or cells: main olfactory epithelium of living mice
The assay can be described thus: OR transcript level by RT-qPCR after in vivo odorant exposure. Also on record: key: The transcript downregulation of 21 out of the 26 olfactory receptor candidates obtained by RNAseq was confirmed by qPCR; false RNAseq positive candidates, namely OR candidates for which in fact mRNA was not downregulated following acetophenone exposure. To be noted: 5% acetophenone exposure. Here is the method: (§1) In vivo exposure to odorant: Starting 48 h before experiments, mice were habituated to pure DMSO on a cotton ball. 200 μl were pipetted directly onto the cotton and placed in the cage, replacing any cotton that was already in the cage for nest-making purposes.
(§2) On the day of the experiment, mice receiving odorants were transferred to a different room, where they were exposed to a cotton ball on which 200 μl of odorant diluted in pure DMSO were deposited. Exposures started in the morning between 8 and 10 am (that is two hours after lights were on) and mice were killed and dissected between 1 and 3 pm. […] If a number of different odorants were tested in the same experiment, a different overpressurized room would always be used for each odorant to avoid odor cross-contamination.
(§3) After odorant exposure, mice were killed by cervical dislocation and immediately decapitated. The main olfactory epithelia (MOE), were harvested in their entirety and transferred to a tube containing 600 μl of lysis buffer and β-mercaptoethanol (RNAeasy kit, Qiagen, following the manufacturer protocol) and a 0.5 cm diameter steel ball, and then put on ice. Samples were then homogenized using a FastPrep®-24 instrument (MP Biomedicals) at 6 m/s for 30 s and left on ice. RNA extraction was performed on all samples in parallel using the Qiagen RNeasy Mini® kit following the manufacturer's instructions. Two DNase treatments were performed on all samples: first using the Qiagen RNase-Free DNase Set® and then using the Life Technologies Ambion DNase I® kit. RNA samples were then aliquoted and stored at −80° C.
(§4) RNA concentrations were determined using an Amersham Ultrospec® 3100 Pro spectrophotometer, and RNA quality was evaluated with an Agilent Technologies 2100 Bioanalyzer®. Each reverse transcription was performed with 0.5 μg RNA using the Takara Primescript® kit, in a final volume of 10 μl. Primers for reverse transcription were equal mixtures of poly-T nucleotides and random hexamers. Negative controls (omitting the reverse transcriptase enzyme) were performed for each sample. 1/14th of the cDNA preparation was used for each triplicated qPCR reaction.
(§5) qPCR Ct values were analyzed using an in-house developed Microsoft Excel® macro file. Triplicate values were compared and outliers (values with a difference higher than 0.5 Ct to their nearest neighbor) were discarded. The number of conditions with an outlying value was always less than 10% of the total number of conditions. Ct values were converted to quantities relative to the maximum for each given gene. Selected reference genes were then analyzed for variance using the geNorm algorithm. All values were normalized with the olfactory tissue-specific genes Omp and Adcy3. β-Actin was used as a non-tissue-specific reference gene to control for differences in dissection between samples.
(§6) Mice (n=6) were exposed to 5% acetophenone or to a “neutral” control condition for 5 hours. An olfactory cDNA library corresponding to each animal was deep sequenced and the ratios of odorant receptor mRNA concentrations relative to controls were plotted (FIG. 3). […] Based on transcriptional downregulation levels observed by RNAseq following acetophenone exposure, a list of 26 candidate responsive ORs was determined (FIG. 3), that reached 74% decrease (Olfr145) or even over 80% (Olfr169) relative to controls. […] The transcript downregulation of 21 out of the 26 olfactory receptor candidates obtained by RNAseq was confirmed by qPCR.

The next assay has as its target T2, olfr490 (Mus musculus, UniProt Q8VFD2).
T2 construct: from tissue; host or cells: main olfactory epithelium of living C57BL/6 mice
The assay is described as above. Details: key: The transcript downregulation of 21 out of the 26 olfactory receptor candidates obtained by RNAseq was confirmed by qPCR; false RNAseq positive candidates, namely OR candidates for which in fact mRNA was not downregulated following acetophenone exposure. To be noted: 5% acetophenone exposure. Here is the method:
as §1, §2, §3, §4, §5, §6

The target of a further assay is T3, olfr145 (Mus musculus, UniProt Q60882).
T3 construct: from tissue; host or cells: main olfactory epithelium of living mice
T3 sequence (Q60882 whole entry): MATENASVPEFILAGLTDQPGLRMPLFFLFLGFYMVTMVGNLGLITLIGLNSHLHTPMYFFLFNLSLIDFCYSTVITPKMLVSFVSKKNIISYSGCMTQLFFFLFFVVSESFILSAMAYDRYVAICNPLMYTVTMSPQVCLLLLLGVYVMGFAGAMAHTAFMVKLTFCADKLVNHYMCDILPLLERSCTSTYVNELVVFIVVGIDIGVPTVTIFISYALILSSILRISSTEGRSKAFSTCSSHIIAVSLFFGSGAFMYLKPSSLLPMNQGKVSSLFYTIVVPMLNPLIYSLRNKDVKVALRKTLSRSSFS
Described as above. Also on record: key: The transcript downregulation of 21 out of the 26 olfactory receptor candidates obtained by RNAseq was confirmed by qPCR; false RNAseq positive candidates, namely OR candidates for which in fact mRNA was not downregulated following acetophenone exposure. To be noted: 5% acetophenone exposure. Here is the method: as §1, §2, §3, §4, §5, §6

The target of a further assay is T4, olfr476 (Mus musculus, UniProt Q8VGI4).
T4 construct: from tissue; host or cells: main olfactory epithelium of living mice
T4 sequence (Q8VGI4 whole entry): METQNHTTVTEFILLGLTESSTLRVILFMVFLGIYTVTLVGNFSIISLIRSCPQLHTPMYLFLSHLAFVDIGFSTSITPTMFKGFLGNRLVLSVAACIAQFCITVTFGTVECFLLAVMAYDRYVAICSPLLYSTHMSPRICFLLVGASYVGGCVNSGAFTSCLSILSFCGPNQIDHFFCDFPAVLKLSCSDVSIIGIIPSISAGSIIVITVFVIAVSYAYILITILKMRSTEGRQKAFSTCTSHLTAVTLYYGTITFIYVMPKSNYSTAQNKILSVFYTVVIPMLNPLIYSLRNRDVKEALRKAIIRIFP
Described as above. Details: key: The transcript downregulation of 21 out of the 26 olfactory receptor candidates obtained by RNAseq was confirmed by qPCR; false RNAseq positive candidates, namely OR candidates for which in fact mRNA was not downregulated following acetophenone exposure. To be noted: 5% acetophenone exposure. Here is the method: as §1, §2, §3, §4, §5, §6

The target in a further assay is T5, olfr143 (Mus musculus, UniProt P34985).
T5 construct: from tissue; host or cells: main olfactory epithelium of living mice
T5 sequence (P34985 whole entry): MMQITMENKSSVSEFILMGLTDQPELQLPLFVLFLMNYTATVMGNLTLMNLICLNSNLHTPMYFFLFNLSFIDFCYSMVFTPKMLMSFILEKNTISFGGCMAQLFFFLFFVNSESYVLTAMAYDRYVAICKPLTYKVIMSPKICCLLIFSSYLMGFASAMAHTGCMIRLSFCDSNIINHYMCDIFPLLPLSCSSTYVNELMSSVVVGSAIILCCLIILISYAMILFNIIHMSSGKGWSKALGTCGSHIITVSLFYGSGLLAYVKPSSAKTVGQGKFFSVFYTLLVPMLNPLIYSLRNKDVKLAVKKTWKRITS
The assay is described as above. Details: key: The transcript downregulation of 21 out of the 26 olfactory receptor candidates obtained by RNAseq was confirmed by qPCR; false RNAseq positive candidates, namely OR candidates for which in fact mRNA was not downregulated following acetophenone exposure. To be noted: 5% acetophenone exposure. Here is the method: as §1, §2, §3, §4, §5, §6

In the next assay the target is T6, olfr19 (Mus musculus, UniProt Q9JHB2).
T6 construct: from tissue; host or cells: main olfactory epithelium of living mice
T6 sequence (Q9JHB2 whole entry): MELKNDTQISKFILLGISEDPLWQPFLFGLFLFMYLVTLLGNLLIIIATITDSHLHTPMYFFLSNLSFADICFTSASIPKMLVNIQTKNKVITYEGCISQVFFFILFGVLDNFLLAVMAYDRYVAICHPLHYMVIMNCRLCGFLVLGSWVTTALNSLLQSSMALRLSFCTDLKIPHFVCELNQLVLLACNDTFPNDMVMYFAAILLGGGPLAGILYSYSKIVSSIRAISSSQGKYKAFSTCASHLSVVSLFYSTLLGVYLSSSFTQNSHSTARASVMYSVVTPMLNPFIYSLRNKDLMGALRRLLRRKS
Described as above. Details: key: The transcript downregulation of 21 out of the 26 olfactory receptor candidates obtained by RNAseq was confirmed by qPCR; false RNAseq positive candidates, namely OR candidates for which in fact mRNA was not downregulated following acetophenone exposure. To be noted: 5% acetophenone exposure. As for the experimental part: as §1, §2, §3, §4, §5, §6

For a further assay, the target named is T7, Olfr556 (Mus musculus, UniProt B2RRG2).
T7 sequence (B2RRG2 1-324): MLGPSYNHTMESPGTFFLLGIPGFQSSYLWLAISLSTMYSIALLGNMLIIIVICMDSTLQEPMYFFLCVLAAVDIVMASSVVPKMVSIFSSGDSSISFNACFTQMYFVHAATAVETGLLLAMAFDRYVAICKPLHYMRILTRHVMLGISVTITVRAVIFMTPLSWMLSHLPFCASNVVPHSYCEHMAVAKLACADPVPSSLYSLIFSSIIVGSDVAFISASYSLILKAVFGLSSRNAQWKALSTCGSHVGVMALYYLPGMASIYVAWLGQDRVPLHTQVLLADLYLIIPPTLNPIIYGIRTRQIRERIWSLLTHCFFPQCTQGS
The assay can be described thus: OR transcript downregulation by RNAseq after in vivo exposure. Also on record: from tissue; host or cells: main olfactory epithelium of exposed mice. To be noted: 5% odorant, 5 hours, reduction larger than 20% = downregulated. Here is the method: Animals were exposed to 5% acetophenone for 5 hours before RNA extraction (as previously described). cDNA libraries were generated with the Truseq RNA and DNA sample preparation kits after selection of polyA-containing mRNAs. Adapters for RNAseq multiplexing were added to the cDNAs. The cDNA libraries were sequenced with a HiSeq®2500 Sequencing system. 100 bp reads were mapped using Bowtie2 with a 28 bp seed. The differential gene expression analyses were performed with DESeq2. Because of the high sequence similarity between OR gene paralogs, some reads are mapped to multiple OR genes. These reads were removed from the analysis.
as §6

T2 sequence (Q8VFD2 whole entry): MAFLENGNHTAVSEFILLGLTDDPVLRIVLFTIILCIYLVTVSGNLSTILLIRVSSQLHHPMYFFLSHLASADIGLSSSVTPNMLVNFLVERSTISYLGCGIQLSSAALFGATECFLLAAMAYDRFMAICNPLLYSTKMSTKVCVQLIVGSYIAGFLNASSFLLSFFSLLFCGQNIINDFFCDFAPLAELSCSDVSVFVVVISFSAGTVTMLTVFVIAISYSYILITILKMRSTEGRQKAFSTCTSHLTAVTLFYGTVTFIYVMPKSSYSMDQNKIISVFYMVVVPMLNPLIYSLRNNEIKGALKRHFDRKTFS
T1 sequence (Q8VG04 whole entry): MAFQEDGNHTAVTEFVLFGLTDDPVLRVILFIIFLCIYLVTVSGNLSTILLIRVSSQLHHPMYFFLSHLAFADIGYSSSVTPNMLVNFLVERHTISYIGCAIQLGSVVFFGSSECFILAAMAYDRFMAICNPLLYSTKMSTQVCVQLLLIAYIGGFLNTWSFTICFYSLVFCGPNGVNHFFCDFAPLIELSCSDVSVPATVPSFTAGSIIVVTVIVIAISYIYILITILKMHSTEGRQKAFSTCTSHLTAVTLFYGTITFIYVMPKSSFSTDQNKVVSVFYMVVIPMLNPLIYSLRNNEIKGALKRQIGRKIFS

Take `CC(=O)c1ccccc1` [acetophenone]: the “olfr478 candidate OR (RNAseq) confirmed by qPCR” value at olfr478 was “y”. In addition, on olfr490, the “olfr490 candidate OR (RNAseq) confirmed by qPCR” value is “n”. Moreover, the “olfr145 candidate OR (RNAseq) confirmed by qPCR” value at olfr145 is “y”. Also, the “olfr476 candidate OR (RNAseq) confirmed by qPCR” value at olfr476 is reported as “y”. On olfr143, the “olfr143 candidate OR (RNAseq) confirmed by qPCR” value is recorded as “y”. For the same molecule, the “olfr19 candidate OR (RNAseq) confirmed by qPCR” value on olfr19 is on record as “y”. Also, the “Olfr556 transcript modulation (RNAseq)” value on Olfr556 is listed as “downregulated”.
